This is an account of results in US20240246968A1, “SMALL MOLECULE INHIBITORS OF KRAS G12C MUTANT” (Merck Sharp & Dohme LLC, priority 2021, published 2024).

Test [1] addresses T1, interaction between recombinant K-Ras4B G12C mutant protein and cRAF RAS-binding domain (cRAF-RBD) (Homo sapiens, UniProt P01116, G12C).
T1 construct: made in house; host or cells: E. coli
The test can be described thus: Inhibitory activity on interaction between KRAS G12C and cRAF (Alpha technology). The test is classed as biochemical. Particulars: GMPPNP-bound KRAS G12C incubated with compound at 25° C. for 1 hour, then cRAF-RBD; Alpha signal. The method, boiled down:
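Alpha readout of cRAF-RBD (aa 50-132) binding to KRAS G12C (aa 1-169) after 1.5 h RT, following 1 h, 25° C compound preincubation with GMPPNP-bound protein (pH 7.5 Tris, 1 mM MgCl2, TCEP, Tween 20). IC50 fitted from titrations, with GDP-bound KRAS as 100% and DMSO as 0% inhibition.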

The target of test [2] is Gppcp-bound recombinant K-Ras4B G12C mutant protein (amino acids 1-169, C51S/C80L/C118S) (Homo sapiens, UniProt P01116, C118S/C51S/C80L/G12C). The test can be described thus: KRASG12C binding assay (LC-MS, compound binding rate). As to conditions: test compound final concentration 0.5 μM, 25° C., 1 hour. Summed up:
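Covalent adduct formation measured by deconvoluted intact-mass LC-MS after 1 h at 25 °C with compound at 0.5 μM final and 50 nM Gppcp-loaded KRAS G12C (residues 1-169, C51S/C80L/C118S). Buffer: TBS, 0.1 mM TCEP, 0.25 mM MgCl2, 50 μM Gppcp. Binding % = one-molecule adduct/(unbound + all adducts), binned A ≥80, B 60–80, C 40–60, D 20–40, E <20.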

In the next test the test system is MIA PaCa-2 cells. Nature of the test: Growth inhibition activity on KRAS-G12C mutant cell line (MIA PaCa-2), CellTiter-Glo 3D. The test is classed as cell-based, human. As to conditions: Homo sapiens, MIA PaCa-2, 72 h, MIA PaCa-2, 3-day culture with compound. The method, boiled down:
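Luminescence readout (CellTiter-Glo 3D) after 3 days of compound treatment at 37 °C, 5% CO2, 0.2% final DMSO, gave % growth inhibition versus no-compound wells, from which IC50 (nM) was derived; cells had been plated in 10% FBS RPMI1640 one day before dosing.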

As for `Cc1nc2cc(-c3cccn4c(C(=O)c5cc(F)c(NC(=O)/C=C/CNC6CCOC6)c(F)c5)ccc34)c(C(F)(F)F)cc2n1C` (stereo not drawn) [Example 77, (E)-N-(4-(8-(1,2-dimethyl-6-(trifluoromethyl)-1H-benzo[d]imidazol-5-yl)indolizine-3-carbonyl)-2,6-difluorophenyl)-4-((tetrahydrofuran-3-yl)amino)but-2-enamide], the concentration for half-maximal inhibition (IC50) in test [1] turned out to be 42 nM; in the test with MIA PaCa-2 cells, 71 nM. Further, the binding rate entry in test [2] is on record as “A (A binding rate of 80% or more is rated “A”)”.

With `Cc1nc2cc(-c3cccn4c(C(=O)c5cc(F)c(NC(=O)/C=C/CNC6CCCOC6)c(F)c5)ccc34)c(C(F)(F)F)cc2n1C` (stereo not drawn) [Example 78, (E)-N-(4-(8-(1,2-dimethyl-6-(trifluoromethyl)-1H-benzo[d]imidazol-5-yl)indolizine-3-carbonyl)-2,6-difluorophenyl)-4-((tetrahydro-2H-pyran-3-yl)amino)but-2-enamide], the values for the IC50 (in test [1]; with MIA PaCa-2 cells) were 51 nM and 120 nM, respectively. In addition, the binding rate entry in test [2] is listed as “A (A binding rate of 80% or more is rated “A”)”.

Regarding `Cc1nc2cc(-c3cccn4c(C(=O)c5cc(F)c(NC(=O)/C=C/CNC6CC7CCC(C6)O7)c(F)c5)ccc34)c(C(F)(F)F)cc2n1C` (stereo not drawn) [Example 79, (E)-4-((8-oxabicyclo[3.2.1]octan-3-yl)amino)-N-(4-(8-(1,2-dimethyl-6-(trifluoromethyl)-1H-benzo[d]imidazol-5-yl)indolizine-3-carbonyl)-2,6-difluorophenyl)but-2-enamide], the values for the half-inhibitory concentration (IC50) (in test [1]; in the test with MIA PaCa-2 cells) were 61 nM and 110 nM, respectively. For the same compound, the binding rate entry in test [2] was “A (A binding rate of 80% or more is rated “A”)”.

`Cc1nc2cc(-c3cccn4c(C(=O)c5cc(F)c(NC(=O)/C=C/CN[C@H]6CC[C@H](F)CC6)c(F)c5)ccc34)c(C(F)(F)F)cc2n1C` [Example 80, (E)-N-(4-(8-(1,2-dimethyl-6-(trifluoromethyl)-1H-benzo[d]imidazol-5-yl)indolizine-3-carbonyl)-2,6-difluorophenyl)-4-(((1r,4r)-4-fluorocyclohexyl)amino)but-2-enamide]: the IC50 in test [1] turned out to be 59 nM; in the test with MIA PaCa-2 cells, 85 nM. For the same compound, the binding rate result in test [2] was “A (A binding rate of 80% or more is rated “A”)”.

`Cc1nc2cc(-c3cccn4c(C(=O)c5cc(F)c(NC(=O)/C=C/CN[C@H]6CC[C@@H](F)CC6)c(F)c5)ccc34)c(C(F)(F)F)cc2n1C` [Example 81]: the IC50 stood at 70 nM in test [1] and 71 nM in the test with MIA PaCa-2 cells. Moreover, the binding rate result in test [2] is given as “A (A binding rate of 80% or more is rated “A”)”.

Take `Cc1cc2c(nc(CC(F)(F)F)n2C)c(Cl)c1-c1cccn2c(C(=O)c3cc(F)c(NC(=O)/C=C/CNC(C)(C)C)c(F)c3)ccc12` [Example 82, (E)-4-(tert-butylamino)-N-(4-(8-(4-chloro-1,6-dimethyl-2-(2,2,2-trifluoroethyl)-1H-benzo[d]imidazol-5-yl)indolizine-3-carbonyl)-2,6-difluorophenyl)but-2-enamide]: the IC50 in test [1] was 96 nM; in the test with MIA PaCa-2 cells it was 260 nM. Further, the binding rate result in test [2] is recorded as “A (A binding rate of 80% or more is rated “A”)”.

For the compound `Cc1nc2cc(-c3cccn4c(C(=O)c5cc(F)c(NC(=O)/C=C/CNC67CCC(F)(CC6)C7)c(F)c5)ccc34)c(C(F)(F)F)cc2n1C` [Example 84, (E)-N-(4-(8-(1,2-dimethyl-6-(trifluoromethyl)-1H-benzo[d]imidazol-5-yl)indolizine-3-carbonyl)-2,6-difluorophenyl)-4-((4-fluorobicyclo[2.2.1]heptan-1-yl)amino)but-2-enamide], the IC50 in test [1] amounted to 91 nM; in the test on MIA PaCa-2 cells it was 120 nM. The binding rate entry in test [2] is given as “A (A binding rate of 80% or more is rated “A”)”.

Regarding `Cc1nc2cc(-c3cccn4c(C(=O)c5cc(F)c(NC(=O)/C=C/CNC67CCC(F)(CC6)CC7)c(F)c5)ccc34)c(C(F)(F)F)cc2n1C` [Example 85, (E)-N-(4-(8-(1,2-dimethyl-6-(trifluoromethyl)-1H-benzo[d]imidazol-5-yl)indolizine-3-carbonyl)-2,6-difluorophenyl)-4-((4-fluorobicyclo[2.2.2]octan-1-yl)amino)but-2-enamide], the IC50 was determined as 45 nM in test [1] and 110 nM in the test with MIA PaCa-2 cells. The binding rate result in test [2] was “A (A binding rate of 80% or more is rated “A”)”.

Turning to `COCc1nc2c(Cl)c(-c3cccn4c(C(=O)c5cc(F)c(NC(=O)/C=C/CNC(C)(C)C)c(F)c5)ccc34)c(C)cc2n1C` [Example 86, (E)-4-(tert-butylamino)-N-(4-(8-(4-chloro-2-(methoxymethyl)-1,6-dimethyl-1H-benzo[d]imidazol-5-yl)indolizine-3-carbonyl)-2,6-difluorophenyl)but-2-enamide], the IC50 in test [1] is 40 nM; in the test on MIA PaCa-2 cells, 81 nM. The binding rate entry in test [2] is on record as “A (A binding rate of 80% or more is rated “A”)”.

On to `CO[C@H]1CC[C@H](NC/C=C/C(=O)Nc2c(F)cc(C(=O)c3cc(C)c4c(-c5c(C)cc6c(nc(C)n6C)c5Cl)cccn34)cc2F)CC1` [Example 87, (E)-N-(4-(8-(4-chloro-1,2,6-trimethyl-1H-benzo[d]imidazol-5-yl)-1-methylindolizine-3-carbonyl)-2,6-difluorophenyl)-4-(((1r,4r)-4-methoxycyclohexyl)amino)but-2-enamide], for which the IC50 in test [1] is 35 nM; in the test on MIA PaCa-2 cells, 140 nM. For the same compound, the binding rate result in test [2] is reported as “A (A binding rate of 80% or more is rated “A”)”.

Take `C=Cc1cc(C(=O)c2cc(F)c(NC(=O)/C=C/CN[C@H]3CC[C@H](OC)CC3)c(F)c2)n2cccc(-c3c(C)cc4c(nc(C)n4C)c3Cl)c12` [Example 88, (E)-N-(4-(8(4-chloro-1,2,6-trimethyl-1H-benzo[d]imidazol-5-yl)-1-vinylindolizine-3-carbonyl)-2,6-difluorophenyl)-4-(((1r,4r)-4-methoxycyclohexyl)amino)but-2-enamide]: the IC50 in test [1] came out at 26 nM; in the test on MIA PaCa-2 cells it was 130 nM. Also, the binding rate entry in test [2] is “A (A binding rate of 80% or more is rated “A”)”.

For `CCc1cc(C(=O)c2cc(F)c(NC(=O)/C=C/CN[C@H]3CC[C@H](OC)CC3)c(F)c2)n2cccc(-c3c(C)cc4c(nc(C)n4C)c3Cl)c12` [Example 89, (E)-N-(4-(8-(4-chloro-1,2,6-trimethyl-1H-benzo[d]imidazol-5-yl)-1-ethylindolizine-3-carbonyl)-2,6-difluorophenyl)-4-(((1r,4r)-4-methoxycyclohexyl)amino)but-2-enamide], the IC50 in test [1] was found to be 22 nM; in the test on MIA PaCa-2 cells, 100 nM. The binding rate entry in test [2] is given as “A (A binding rate of 80% or more is rated “A”)”.

Turning to `Cc1nc2cc(-c3cccn4c(C(=O)c5cc(F)c(NC(=O)/C=C/CN[C@@H]6CCOC6)c(F)c5)ccc34)c(C(F)(F)F)cc2n1C` [Example 91], the IC50 in test [1] was determined as 75 nM; with MIA PaCa-2 cells it was 100 nM. The binding rate result in test [2] is “A (A binding rate of 80% or more is rated “A”)”.

Regarding `Cc1nc2cc(-c3cccn4c(C(=O)c5cc(F)c(NC(=O)/C=C/CN[C@H]6CCOC6)c(F)c5)ccc34)c(C(F)(F)F)cc2n1C` [Example 92], the concentration for half-maximal inhibition (IC50) in test [1] worked out at 80 nM; with MIA PaCa-2 cells it was 120 nM. The binding rate entry in test [2] is recorded as “A (A binding rate of 80% or more is rated “A”)”.

`CO[C@H]1CC[C@H](NC/C=C/C(=O)Nc2c(F)cc(C(=O)c3cc(CO)c4c(-c5c(C)cc6c(nc(C)n6C)c5Cl)cccn34)cc2F)CC1` [Example 93]: the IC50 in test [1] worked out at 25 nM; with MIA PaCa-2 cells, 130 nM. Also, in test [2], the binding rate entry was “A (A binding rate of 80% or more is rated “A”)”.

As to `CO[C@H]1CC[C@H](NC/C=C/C(=O)Nc2c(F)cc(C(=O)c3c(C4CC4)nc4c(-c5cc6nc(C)n(C)c6cc5C(F)(F)F)cccn34)cc2F)CC1` [Example 95, (E)-N-(4-(2-cyclopropyl-8-(1,2-dimethyl-6-(trifluoromethyl)-1H-benzo[d]imidazol-5-yl)imidazo[1,2-a]pyridine-3-carbonyl)-2,6-difluorophenyl)-4-(((1r,4r)-4-methoxycyclohexyl)amino)but-2-enamide], the IC50 in test [1] was 130 nM; with MIA PaCa-2 cells, 280 nM. Also, the binding rate result in test [2] is recorded as “A (A binding rate of 80% or more is rated “A”)”.

On to `C/C=C/c1cc(C(=O)c2cc(F)c(NC(=O)/C=C/CN[C@H]3CC[C@H](OC)CC3)c(F)c2)n2cccc(-c3c(C)cc4c(nc(C)n4C)c3Cl)c12` [Example 96, (E)-N-(4-(8-(4-chloro-1,2,6-trimethyl-1H-benzo[d]imidazol-5-yl)-1-((E)-prop-1-en-1-yl)indolizine-3-carbonyl)-2,6-difluorophenyl)-4-(((1r,4r)-4-methoxycyclohexyl)amino)but-2-enamide], for which the IC50 in test [1] worked out at 36 nM; in the test with MIA PaCa-2 cells, 130 nM. For the same compound, the binding rate entry in test [2] is on record as “A (A binding rate of 80% or more is rated “A”)”.
